Results published in the METLIN SMRT retention time set (Domingo-Almenara et al. 2019).

Experiment: gradient 5% acetonitrile 3 min, to 50% in 2 min, to 85% in 15 min, held 3 min, 100 µL/min
Conditions: column: Zorbax Extend-C18 2.1 x 50 mm; eluents: water / acetonitrile, 0.1% formic acid
Outline: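 Retention time was recorded from adduct peaks, which were picked computationally and each inspected manually. Pure standards ran in mixtures of ~100 molecules on HPLC coupled to a quadrupole time-of-flight mass spectrometer, in positive and negative ionization mode, through a Zorbax Extend-C18 column (2.1 × 50 mm, 1.8 μm) at 100 μL/min. Eluents were water and acetonitrile, each with 0.1% formic acid.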

Row | RP-LC retention time [s] | Structure (SMILES)
1 | 646 | CCN(CC)CCNC(=O)c1c(-c2ccccc2)c(-c2ccccc2)nn(C)c1=O
2 | 816 | Cc1cccc(CNC(=O)C2CCN(S(=O)(=O)c3ccc(-c4cc(C)[nH]n4)o3)CC2)c1
3 | 1010 | CCOC(=O)c1sc(NC(=O)c2cc(=O)c3ccccc3o2)nc1-c1ccccc1
4 | 935 | CC(=O)N1c2ccc(S(=O)(=O)N3CCCC3C(=O)Nc3nc4ccc(C)cc4s3)cc2CC1C (centres undefined)
5 | 1080 | O=C(c1nnc(-c2ccc(S(=O)(=O)N3CCCCC3)cc2)o1)N1CCc2ccccc2C1
6 | 634 | Cc1ccc2[nH]c(=O)c(CCC(=O)NCCN3CCc4ccccc4C3)cc2c1
7 | 1020 | COc1ccc(-c2noc(C3CCCN3C(=O)Nc3cccc(Cl)c3)n2)cc1 (centres undefined)
8 | 944 | CC(=O)c1ccc2c(c1)[C@H](NC(=O)c1ccc(F)c(Cl)c1)[C@H](O)C(C)(C)O2
9 | 649 | CCOc1cccc(C2CC(c3ccc(Br)cc3)=NC3(CCN(C)CC3)N2)c1O (centres undefined)
10 | 768 | CS(=O)(=O)N1CCC(OC2CCN(C(=O)Nc3ccccc3C(F)(F)F)CC2)CC1
11 | 620 | COc1ccc(NC(=O)N2CCN(c3cc(-c4ccc(OC)c(OC)c4)ncn3)CC2)cc1
12 | 876 | O=C(c1cccs1)N1N=C(c2cccs2)CC1c1cc([N+](=O)[O-])ccc1O (centres undefined)
13 | 760 | CCOC(=O)c1ccc(Nc2ncnc3c2ncn3CC)cc1
14 | 1080 | Cc1cccc(-c2nc(-c3ccc(S(=O)(=O)N4CCOCC4)cc3)no2)c1
15 | 624 | Cc1ccc(NC(=O)Nc2ccc3nc(N4CCN(C)CC4)cc(C)c3c2)c([N+](=O)[O-])c1
16 | 921 | CCn1c(=O)sc2cc(S(=O)(=O)N3CCC(C(=O)Nc4ccc(F)cc4F)CC3)ccc21
17 | 769 | O=C(c1ccc(OCC2CCCN(C(=O)c3ccc(F)cc3)C2)cc1)N1CCOCC1 (centres undefined)
18 | 1130 | CCOc1ccc(NC(=O)c2cc(C)n3nc(-c4ccco4)cc3n2)cc1
19 | 600 | Cc1ccc2nc(NC(=O)CN3CCc4nc(NC(=O)C5CC5)sc4C3)sc2c1

Row | RP-LC retention time [s] | Structure (SMILES)
20 | 953 | Cc1ccc(N2CCC(NC(=O)c3ccc(C(F)(F)F)cc3)C2=O)cc1 (centres undefined)
21 | 815 | CCc1cccc(NC(=O)C2CCCN(c3nnc(C)c4c(C)n(-c5ccccc5)nc34)C2)c1 (centres undefined)
22 | 895 | CC1Cc2ccccc2N1C(=O)c1ccc(=O)n(CCC(=O)NC2CCCCCCC2)n1 (centres undefined)
23 | 596 | Oc1ccc(-c2nc3ccccn3c2Nc2ccc3c(c2)OCCO3)cc1
24 | 755 | O=C(Nc1cccc(F)c1)N1CCC(N2CCN(Cc3cccc(F)c3)C(=O)C2=O)CC1
25 | 807 | Cc1ccc(CC(=O)NC2CCN(c3cc(-c4ccc(Cl)cc4)[nH]n3)C2)cc1 (centres undefined)
26 | 956 | Cc1ccc(N2CCC(NC(=O)Nc3cc(Cl)ccc3C)C2=O)cc1 (centres undefined)
27 | 923 | Cc1cccc(CNC(=O)CCc2conc2-c2ccccc2)c1
28 | 1040 | Cc1sc2ccn(CC(C)C)c(=O)c2c1C(=O)NCc1cc(F)ccc1F
29 | 828 | CCN1c2ccc(C)cc2C(=O)NC12CCN(C(=O)c1cc(OC)cc(OC)c1)CC2
30 | 1010 | CC(C)c1ccc(Nc2c(-c3ccc(N(C)C)cc3)nc3cnccn23)cc1
31 | 732 | O=C(NCCS(=O)(=O)N1CCc2ccccc2C1)C1CC(=O)N(c2ccc(F)cc2)C1 (centres undefined)
32 | 658 | CSc1ccc(-c2nc3cnccn3c2Nc2ccc(C(N)=O)cc2)cc1
33 | 793 | O=C(Cn1nc2c(N3CCc4ccccc4C3)nccn2c1=O)NC1CCCC1
34 | 781 | O=C(Cc1c[nH]c2ccccc12)N1CCC(NS(=O)(=O)c2ccc(F)cc2)CC1
35 | 1200 | CCCCc1ccc(NC(=O)Cn2nc3cc(C)nc(-c4ccc(Cl)cc4)n3c2=O)cc1
36 | 670 | Cc1nnc2ccc(S(=O)(=O)Nc3ccc(F)cc3)cn12
37 | 976 | CCc1cccc(C)c1NC(=O)C1CCN(S(=O)(=O)c2c(C)nn(-c3ccccc3)c2C)CC1
38 | 860 | Cc1ccc(C)c(N2CCN(C(=O)c3ccc(Cn4cncn4)cc3)CC2)c1

Continued, compound first:

Row | Structure (SMILES) | RP-LC retention time [s]
39 | COc1ccccc1OCCN1C(=O)CCc2c(C)ncnc21 | 696
40 | O=C(NCCc1c[nH]c2ccc(Cl)cc12)c1cccc(Cn2c(=O)c3cccn3c3cccnc32)c1 | 981
41 | Cc1cccc(-c2nnc(-c3nc(NCc4ccc(C)o4)c4ccccc4n3)o2)c1 | 670
42 | O=C(c1cccs1)N1CCOc2ccc(N3CCCC3)cc2C1 | 825
43 | CCn1ncc(CN(C)C(=O)C2CN(C(=O)c3ccccc3)CC23CCCCC3)c1C (centres undefined) | 774
44 | Cc1nn(C)c(C)c1C(=O)N1CCC2(CCC2O)CC1 (centres undefined) | 600
45 | CC1CCN(c2ccc(C(=O)NCC3CCCO3)cc2S(=O)(=O)N2CCC(C)CC2)CC1 (centres undefined) | 1170
46 | Nc1nc(SCCc2ccccc2)c2[nH]cnc2n1 | 675
47 | O=C(Cn1cnc2c(sc3nc(-c4ccccc4)ccc32)c1=O)Nc1cc(F)cc(F)c1 | 1070
48 | CCCCN(CCCNC(=O)C1CCN(S(=O)(=O)CC)CC1)c1ccccc1 | 645
49 | O=C(Nc1ccc(Cl)cc1F)C1CCc2nc(N3CCOCC3)ncc2C1 (centres undefined) | 856
50 | Cc1cc(=O)n2c3c(c4c(cc13)c(CN(C)C)cc(=O)n4C)OC2 | 601
51 | CC1CCC(NC(=O)C2CCN(C(=O)c3ncn4c3COC(c3ccccc3)C4)CC2)CC1 (centres undefined) | 816
52 | CCCn1cc(S(=O)(=O)NCc2cccc(Cl)c2)c2cccnc21 | 950
53 | Cc1cc(N2CCN(C(=O)c3ccccc3)CC2)nc2nncn12 | 558
54 | O=C(NCCC1=CCCCC1)C1CCN(c2cnc(N3CCOCC3)nc2)CC1 | 772
55 | COc1ccc(Nc2nc(N(C)C)nc3nccnc23)cc1 | 563
56 | COc1ccc(C2(C(=O)N3C[C@H]4C[C@H](C3)[C@H]3CCCC(=O)N3C4)CCCCC2)cc1 | 826
57 | Cc1cccc(OCCc2noc(C3CN(S(=O)(=O)N(C)C)C3)n2)c1 | 950
58 | CCOC(=O)C1CCc2sc(NC(=O)C3COCC(=O)N3Cc3ccccc3)nc21 (centres undefined) | 730
59 | CCN(CC)S(=O)(=O)c1cc(-c2nnc(-c3ccccc3Cl)o2)ccc1OC | 1040
60 | COc1cccc(-c2nc(-c3cccc(-c4ccn[nH]4)c3)no2)c1 | 1010
61 | Cc1cc(C)c2c(n1)sc1c(N3CCC(C(=O)N4CCN(c5ccccn5)CC4)CC3)ncnc12 | 668
62 | CCCCn1c(C(C)NC(=O)c2ccco2)nc2ccccc21 (centres undefined) | 651
63 | Cc1cc(-c2ccccc2)nc(Nc2nc(-c3ccccc3)c(CC(=O)O)s2)n1 | 922
64 | O=C(CCC1CCN(c2cc(NC3CC3)ncn2)CC1)NCCN1CCc2ccccc2C1 | 574
